One experiment deals with hind limb locomotion. Kind of experiment: Open-field walking test (BBB scale) after spinal cord contusion. In kind it is in vivo, Sprague-Dawley rats. Conditions: SCI 250 Kdyn. As to the method:
(§1) Adult females Sprague-Dawley rats aged 11 weeks (220-250 g) were anesthetized with pentobarbital (40 mg/kg i.p.). When unresponsive, the vertebral column was exposed and a laminectomy carried out at T8-T9 levels. Rostral T7 and caudal T10 vertebral bodies were clamped with Adson stabilizing forceps, and carefully adjusted to level the spinal cord in the horizontal plane. A contusion injury was performed using the Infinite Horizon impactor device (Precision Scientific Instruments, Lexington, KY). The stainless steel impounder tip was placed at 3-4 mm above the exposed spinal cord, and then a fast impact produced applying forces of 150 or 250 kilodynes (KDyn) to the exposed spinal cord. The wound was sutured with 5-0 silk thread in the muscular plane and the skin was closed with small clips and disinfected with povidone iodine solution. Sham-operated animals received the same surgical procedure but sustained no impact injury; the spinal cord was left exposed for 5 min. The animals were maintained in a warm environment until full recovery, and received preventive antibiotic (amoxicyline) and analgesic (buprenorphine) treatment. All animals were kept under standard conditions of light and temperature and fed with food and water ad libitum. […]

For another experiment, the system named is axons. Briefly: Immunohistochemistry of axons (RT97 neurofilament, 5-HT) after SCI. In kind it is in vivo, Sprague-Dawley rats. How it is done:
as §1

For the next experiment, the system named is CHOP. Kind of experiment: Tunicamycin-induced ER stress in primary fibroblasts, Western blot of CHOP. In kind it is cell-based, rat. The settings on record: primary fibroblast cells, 3 µg/ml tunicamycin, valproate. How it is done: Primary fibroblasts obtained from rat sciatic nerve and HEK cell line were cultured in Dulbecco's modified Eagle's/F-12 medium supplemented with 10% fetal calf serum (Gibco). Fibroblasts were treated with 3 µg/mL of tunicamycin (Sigma) for 4 h and harvested in RIPA buffer for protein extraction.
We have recently reported that SCI triggers an unbalanced UPR characterized by unchanged levels of BiP/Grp78 levels but progressive accumulation of the pro-apoptotic protein CHOP, with maximal CHOP levels found at 3 days post-injury in the weight-drop contusion model (Penas et al, 2007). In this study, we used a contusion model using an impactor device to specifically control the force (either 150 KDyn or 250 KDyn) to be apply on the T8 laminectomized spinal cord segment. We analyzed the spinal cord 8 mm-length segment that includes the lesion epicenter from sham-operated animals and from VPA treated or vehicle treated SCI animals at 3 days after operation. […] Thus, we increased the amount of VPA administered to 300 mg/kg every 12 h, as reported previously for a brain stroke rat model (Kim et al, 2007), and analyzed the effect using two different contusion forces of 150 and 250 KDyn. We observed that the levels of CHOP were directly proportional to the severity of the lesion; the more severe, the higher the level. […]

Another experiment relates to BiP/Grp78. Briefly: Western blot of BiP/Grp78 in spinal cord after contusion SCI. The class given is in vivo, Sprague-Dawley rats. As to the method: as §1, with “treatment.” for “treatment. All animals were kept under standard conditions of light and temperature and fed with food and water ad libitum.”
Rats were re-anesthetised and decapitated at 3 dpo for sample preparation. […] After clearance, protein concentration was measured by the BCA method assay (BCA Protein Assay kit, Pierce). […]

Each structure is given as a SMILES string.

As to `CCCC(CCC)C(=O)O` [VPA, 2-propylpentanoic acid], the BBB score is on record as 3-4 in the experiment on hind limb locomotion (7 days post-surgery, average of both groups) and 12 in the experiment on hind limb locomotion (35 days, VPA 300 mg/kg every 12 h one week then every 24 h two weeks, saline 8). Besides, the “density of axonal profiles” value in the experiment with axons (anti-neurofilament antibody RT97, rostral and caudal to the lesion) is recorded as “increased density”. Further, the “number of serotonin (5-HT)-positive axons” value in the experiment on axons (rostral and caudal to the lesion) was “increased”. Further, the “CHOP accumulation promoted by tunicamycin” value in the experiment on CHOP is on record as “can be attenuated”. The BiP levels result in the experiment with BiP/Grp78 (VPA 300 mg/kg every 12 h i.p., contusion 150 and 250 KDyn, three days post-injury) is recorded as “not able to alter”; in the experiment on BiP/Grp78 (VPA 300mg/kg once per day i.p., vs saline, 3 days post-injury) it was “did not produce changes”.

(Values after patent publication EP2181708A1, “Use of Valproate for reducing CHOP levels, particularly in a mammal having SCI” (Universitat Autonoma de Barcelona, priority 2008, dated 2010).)
